According to PMC5840523, “Assessment of a pretomanid analogue library for African trypanosomiasis: Hit-to-lead studies on 6-substituted 2-nitro-6,7-dihydro-5H-imidazo[2,1-b][1,3]thiazine 8-oxides” (Bioorganic & Medicinal Chemistry Letters, 2018):
In brackets after ≈: the same amount, converted by molar mass. Read-outs that look alike come from different tables or passages of the source.

Columns and labels:
[1] = in vitro; details: dog, MDCK-MDR1, Permeability Papp
[2] = tested on: T. b. brucei 427; test: T. b. brucei 427 growth inhibition (Scynexis); format: cell-based, Trypanosoma brucei brucei; details: for Selectivity Index: L929 vs T. b. brucei; for IC50: Trypanosoma brucei, growth inhibition of T. b. brucei 427, mean ± SD
[3] = tested on: Leishmania infantum; test: L. infantum growth inhibition (University of Antwerp); format: cell-based; details: mean of 2 to 5 determinations
[4] = tested on: L929 mouse fibroblasts; test: Cytotoxicity toward L929 mouse fibroblasts (Scynexis); format: cell-based
[5] = Mouse pharmacokinetics (plasma, whole blood, brain); format: in vivo, male CD-1 mice; details: male, CD-1, mouse; for bioavailability: po; for Vd: read-out: Vdss; for half-life: read-out: t1/2 (converted)
Procedure: In order to determine the suitability of the more permeable hits for in vivo efficacy studies, we first measured their aqueous solubilities, and their tendencies to metabolise, following a 1 h incubation with CD-1 mouse liver S9 subcellular fractions.[14] […] This led us to probe their in vivo pharmacokinetic (PK) profiles in mice, examining concentration levels in plasma, whole blood and brain tissue following both intravenous and oral administration (Table 2; for further experimental details, see the Supporting Information). […]
Mouse Pharmacokinetics. The in-life portion of PK testing was carried out by ViviSource Laboratories, Inc., Mass achusetts, USA, and PK samples were anal ysed by Sc ynexis, Inc.
Test compounds (9, 12, 17, and 19) w er e each administered as single doses to groups of 10 male CD-1 mice by bolus intravenous injection or oral gavage. Intravenous dosing (at a nominal dose of 2 mg/kg) emplo yed a solution vehicle comprising either 20% EtOH, 20% propylene gl ycol, and 30% PEG -400 in normal saline (for powders 9, 17, and 19) or 0.5% (hydrox yprop yl)meth ylcellulose, 0.4% Tween 80, 0.5% benz yl alcohol, and 20% DMSO i n deionised water (for oil 12). […]
in 0.5% methylcellulose, 0.08% Tween 80 in water ( ex cept fo r oil 12, where the formulation additionally contained 20% DMSO). […]

[6] = tested on: Trypanosoma cruzi; test: T. cruzi growth inhibition (University of Antwerp); format: cell-based; details: mean of 2 to 5 determinations
[7] = tested on: T. b. rhodesiense; test: T. b. rhodesiense growth inhibition (University of Antwerp); format: cell-based, Trypanosoma brucei rhodesiense; details: mean of 2 to 5 determinations, read-out: IC50 T. b. rhod
[8] = Mouse liver S9 stability; format: in vitro ADME; details: CD-1, mouse, mouse liver S9 subcellular fraction, half-life in mouse liver S9 fraction; read-out: Mouse S9 t1/2
[9] = Kinetic aqueous solubility in pH 7.4 PBS; format: physicochemical
Excerpt: Table 1 Inhibitory potency, metabolic stability, aqueous solubility, and MDCK-MDR1 cell permeability for 15 screening hits against T. b. brucei. | column: Solubility ^c / (µg/mL)

[10] = tested on: human lung fibroblasts (MRC-5 cells); test: Cytotoxicity toward MRC-5 cells (University of Antwerp); format: cell-based; details: Homo sapiens, MRC5, cytotoxicity toward human lung fibroblasts
[11] = tested on: T. b. brucei 427; test: T. b. brucei growth inhibition (University of Antwerp); format: cell-based, Trypanosoma brucei brucei; details: T. b. brucei 427, mean of 2 to 5 determinations, read-out: IC50 T. b. bruc
[12] = tested on: MDCK-MDR1 cell monolayer; details: dog, MDCK-MDR1, 1 h, 3 µM
[13] = brain, from dose normalised AUClast values, read-out: F (oral bioavailability)
[14] = over the three sampling sites (plasma, whole blood, brain), read-out: oral bioavailability
[15] = whole blood, from dose normalised AUClast values, read-out: F (oral bioavailability)
[16] = brain, intravenous, corrected doses 0.5, 1.1, 2.9, 2.0 mg/kg for 9, 12, 17, 19
[17] = brain, oral, corrected doses 62, 50, 78, 49 mg/kg for 9, 12, 17, 19
[18] = plasma, intravenous, corrected doses 0.5, 1.1, 2.9, 2.0 mg/kg for 9, 12, 17, 19
[19] = plasma, oral, corrected doses 62, 50, 78, 49 mg/kg for 9, 12, 17, 19
[20] = whole blood, intravenous, corrected doses 0.5, 1.1, 2.9, 2.0 mg/kg for 9, 12, 17, 19
[21] = whole blood, oral, corrected doses 62, 50, 78, 49 mg/kg for 9, 12, 17, 19
[22] = Trypanosoma brucei, RHODESIENSE
[23] = plasma, from dose normalised AUClast values, read-out: F (oral bioavailability)

| SMILES | Papp at 1 h, 3 µM [1] | bioavailability [5, 13] | bioavailability [5, 15] | AUC(0-t) [5, 16] | clearance [5, 16] | Vd [5, 16] | half-life [5, 16] | AUC(0-t) [5, 17] | Cmax [5, 17] | Tmax [5, 17] | half-life [5, 17] | AUC(0-t) [5, 18] | clearance [5, 18] | Vd [5, 18] | half-life [5, 18] | AUC(0-t) [5, 19] | Cmax [5, 19] | Selectivity Index [2] | IC50 [2] | IC50 [4] | other results |
| --- | --- | --- | --- | --- | --- | --- | --- | --- | --- | --- | --- | --- | --- | --- | --- | --- | --- | --- | --- | --- | --- |
| O=[N+]([O-])c1cn2c(n1)[S+]([O-])CC(OCc1ccc(OCc3ccccc3)cc1)C2 (centres unmarked) [Compound 9] | 77.1 ×10⁻⁶ cm/s | 0.8% | 0.8% | 304 ng·h/mL | 25 mL/min/kg | 1.2 L/kg | 1.6 h | 290 ng·h/mL | 60 ng/mL | 2 h | 3.2 h | 505 ng·h/mL | 16.2 mL/min/kg | 0.59 L/kg | 0.43 h | 869 ng·h/mL | 200 ng/mL | >667 | 0.015 ± 0.005 µg/mL (≈ 0.0363 µM) | > 10 µg/mL | IC50 ([3]; Leishmania infantum): 3400 nM; bioavailability ([5]; 0.5 mg/kg, plasma, from dose normalised AUClast values, read-out: F (oral bioavailability)): 1.4%; bioavailability [5, 14]: < 1.5%; Tmax [5, 19]: 2 h; half-life [5, 19]: 3.7 h; AUC(0-t) [5, 20]: 489 ng·h/mL; clearance [5, 20]: 14.5 mL/min/kg; Vd [5, 20]: 0.33 L/kg; half-life [5, 20]: 0.42 h; AUC(0-t) [5, 21]: 494 ng·h/mL; Cmax [5, 21]: 110 ng/mL; Tmax [5, 21]: 2 h; half-life [5, 21]: 5.3 h; IC50 ([6]; Trypanosoma cruzi): 120 nM; IC50 [7, 22]: 27 nM; half-life [8]: 2.88 h; solubility [9]: 5.4 µg/mL (≈ 13.1 µM); IC50 [10]: 64000 nM; IC50 ([11]; Trypanosoma brucei): 30 nM |
| O=[N+]([O-])c1cn2c(n1)OC[C@@H](OCC#Cc1ccc(-c3ccc(C(F)(F)F)cc3)cn1)C2 [Compound 16] |  |  |  |  |  |  |  |  |  |  |  |  |  |  |  |  |  | >19 | 0.53 ± 0.23 µg/mL (≈ 1.19 µM) | > 10 µg/mL | absolute AQ [12]: ≥ 0.3 |
| O=[N+]([O-])c1cn2c(n1)OCC(COc1ccc(-c3ccc(OC(F)(F)F)cc3)nc1)C2 (centres unmarked) [Compound 18] |  |  |  |  |  |  |  |  |  |  |  |  |  |  |  |  |  | >12 | 0.83 ± 0.41 µg/mL (≈ 1.9 µM) | > 10 µg/mL | absolute AQ [12]: ≥ 0.3 |

Second part, led by results:

| Papp at 1 h, 3 µM [1] | bioavailability [5, 13] | bioavailability [5, 15] | AUC(0-t) [5, 16] | clearance [5, 16] | Vd [5, 16] | half-life [5, 16] | AUC(0-t) [5, 17] | Cmax [5, 17] | Tmax [5, 17] | half-life [5, 17] | AUC(0-t) [5, 18] | clearance [5, 18] | Vd [5, 18] | half-life [5, 18] | AUC(0-t) [5, 19] | Cmax [5, 19] | SMILES | Selectivity Index [2] | IC50 [2] | IC50 [4] | other results |
| --- | --- | --- | --- | --- | --- | --- | --- | --- | --- | --- | --- | --- | --- | --- | --- | --- | --- | --- | --- | --- | --- |
| 79.8 ×10⁻⁶ cm/s | 55% | 52% | 2850 ng·h/mL | 6.67 mL/min/kg | 1.3 L/kg | 2.3 h | 71200 ng·h/mL | 14000 ng/mL | 4 h | 6.9 h | 2090 ng·h/mL | 8.67 mL/min/kg | 1.6 L/kg | 2.5 h | 51900 ng·h/mL | 9300 ng/mL | O=[N+]([O-])c1cn2c(n1)[S+]([O-])CC(OCc1ccc(OC(F)(F)F)cc1)C2 (centres unmarked) [Compound 12] | >63 | 0.16 ± 0.07 µg/mL (≈ 0.409 µM) | > 10 µg/mL | IC50 [3]: 16000 nM; bioavailability [5, 14]: 52 to 55%; bioavailability [5, 23]: 55%; Tmax [5, 19]: 4 h; half-life [5, 19]: 6.9 h; AUC(0-t) [5, 20]: 2700 ng·h/mL; clearance [5, 20]: 6.5 mL/min/kg; Vd [5, 20]: 1.7 L/kg; half-life [5, 20]: 9.3 h; AUC(0-t) [5, 21]: 63500 ng·h/mL; Cmax [5, 21]: 8600 ng/mL; Tmax [5, 21]: 4 h; half-life [5, 21]: 5.8 h; IC50 [6]: 1500 nM; IC50 [7]: 250 nM; half-life [8]: > 5.83 h; solubility [9]: 39 µg/mL (≈ 99.7 µM); IC50 [10]: 60000 nM; IC50 [11]: 270 nM |
| 62.4 ×10⁻⁶ cm/s | 43% | 37% | 1770 ng·h/mL | 8.5 mL/min/kg | 9.1 L/kg | 14 h | 18800 ng·h/mL | 2400 ng/mL | 4 h | 3 h | 1800 ng·h/mL | 16.7 mL/min/kg | 3.6 L/kg | 2.5 h | 18700 ng·h/mL | 2300 ng/mL | O=[N+]([O-])c1cn2c(n1)S(=O)(=O)CC(OCc1ccc(OC(F)(F)F)cc1)C2 (centres unmarked) [Compound 19] | >11 | 0.9 ± 0.4 µg/mL (≈ 2.21 µM) | > 10 µg/mL | weaker potency vs 12 (fold) ([2]; T. b. brucei): 5.6 fold; IC50 ([3]; Leishmania infantum): > 64000 nM; bioavailability [5, 23]: 42%; Tmax [5, 19]: 2 h; half-life [5, 19]: 2.7 h; AUC(0-t) [5, 20]: 2600 ng·h/mL; clearance [5, 20]: 11.5 mL/min/kg; Vd [5, 20]: 2.8 L/kg; half-life [5, 20]: 5.9 h; AUC(0-t) [5, 21]: 23700 ng·h/mL; Cmax [5, 21]: 3000 ng/mL; Tmax [5, 21]: 2 h; half-life [5, 21]: 3.3 h; IC50 ([6]; Trypanosoma cruzi): 1600 nM; IC50 [7, 22]: 940 nM; half-life [8]: 4.97 h; solubility [9]: 10 µg/mL (≈ 24.6 µM); IC50 [10]: > 64000 nM; IC50 ([11]; Trypanosoma brucei): 1100 nM |
